In the supplement of paper PMC10307832:

Experiments:
Assay in all cases: relative viability (nuclei count vs DMSO), 5 days (fraction); higher = more cells survive
[1] = compound: COc1nc(N)nc2c1ncn2[C@@H]1O[C@H](CO)[C@@H](O)[C@@H]1O [Nelarabine] + COc1cc2c(Oc3ccc(NC(=O)C4(C(=O)Nc5ccc(F)cc5)CC4)cc3F)ccnc2cc1OCCCN1CCOCC1 [Foretinib] (partner 0.25 µM)
How it was run: (§1)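 Lung cancer cell lines were pin-tool dosed in 1536-well plates on the day after seeding, with either a lone drug or a fixed anchor-drug dose plus five library-drug doses (not always all listed) in √10 steps. Nuclei were counted on 4× images after 5 days. Relative viability is the ratio of treated-well to vehicle-well nuclei counts, with each value a median of duplicate plates.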

[2] = compound: C=CCn1c(=O)c2cnc(Nc3ccc(N4CCN(C)CC4)cc3)nc2n1-c1cccc(C(C)(C)O)n1 [Adavosertib] + Cc1nc(NC(=O)N2CCC[C@H]2C(N)=O)sc1-c1ccnc(C(C)(C)C(F)(F)F)c1 [Alpelisib] (partner 2 µM)
How it was run: as §1

[3] = compound: COc1nc(N)nc2c1ncn2[C@@H]1O[C@H](CO)[C@@H](O)[C@@H]1O [Nelarabine] + N=C(N)NC(=N)NCCc1ccccc1 [Phenformin] (partner 250 µM)
How it was run: as §1

[4] = compound: C=CCn1c(=O)c2cnc(Nc3ccc(N4CCN(C)CC4)cc3)nc2n1-c1cccc(C(C)(C)O)n1 [Adavosertib] + Cc1nc(Nc2ncc(C(=O)Nc3c(C)cccc3Cl)s2)cc(N2CCN(CCO)CC2)n1 [Dasatinib] (partner 0.075 µM)
How it was run: as §1

Cell Line	relative viability ([1]; first compound 0.01 µM)	relative viability ([1]; first compound 0.03162 µM)	relative viability ([1]; first compound 0.1 µM)	relative viability ([1]; first compound 0.3162 µM)	relative viability ([1]; first compound 1 µM)	relative viability ([2]; first compound 0.01 µM)	relative viability ([2]; first compound 0.03162 µM)	relative viability ([2]; first compound 0.1 µM)	relative viability ([2]; first compound 0.3162 µM)	relative viability ([3]; first compound 0.01 µM)	relative viability ([3]; first compound 0.03162 µM)	relative viability ([3]; first compound 0.1 µM)	relative viability ([3]; first compound 0.3162 µM)	relative viability ([3]; first compound 1 µM)	relative viability ([4]; first compound 0.01 µM)	relative viability ([4]; first compound 0.03162 µM)	relative viability ([4]; first compound 0.1 µM)	relative viability ([4]; first compound 0.3162 µM)
NCI-H661	1.15	1.2	1.02	1.05	1.06	0.492	0.968	0.503	0.595	0.282	0.277	0.276	0.274	0.258	0.864	0.846	0.75	0.347
SW 900	1.02	0.749	0.934	0.947	0.832					0.592	0.583	0.546	0.784	0.635		0.607	0.645	0.36
HCC-827	1.01	0.925	0.87	0.822	0.716	1	1.05	0.995	0.838	0.373	0.378	0.308	0.352	0.443	0.282	0.284	0.264	0.282
A-427	1.11	0.97	0.972	1.13	0.954	1.08	1.11	1.1	1.04	0.315	0.22	0.306	0.289	0.236	0.715	0.709	0.805	0.425
EBC-1	0.122	0.111	0.146	0.0922	0.105	0.98	0.843	0.921	0.81									
NCI-H2009	1.19	1.2	1.31	1.22	1.27	1.13	1.22	1.13	1.17	0.555	0.518	0.479	0.532	0.47	0.318	0.294	0.297	0.178
EPLC-272H	0.81	0.503	0.655	0.66	0.584	0.918	0.893	0.868	0.723	0.236	0.291	0.272	0.265	0.291	0.312	0.339	0.363	0.205
LC-2-ad	1	1.01	0.848	0.885	0.858	0.768	0.84	0.791	0.804	0.618	0.613	0.637	0.54	0.536	0.539	0.654	0.582	0.493
HCC-366	1.03	0.717	0.942	0.974	0.895	0.47	0.435	0.501	0.509	0.644	0.602	0.663	0.585	0.589	0.668	0.631	0.736	0.63
RERF-LC-KJ	1.1	1.07	0.923	0.858	0.938	0.855	0.784	0.764	0.793	0.436	0.427	0.403	0.403	0.425	0.799	0.774	0.975	0.715
EKVX	0.966	0.803	0.732	0.614	0.777	0.843	0.858	0.833	0.911	0.22	0.234	0.231	0.22	0.232	0.534	0.602	0.538	0.52
NCI-H1395	1.07	0.923	1.08	1.01	1.01	0.975	1.1	1.03	0.732	0.487	0.401	0.474	0.455	0.423	0.427	0.407	0.416	0.439
LOU-NH91	0.959	0.938	0.932	0.893	0.977	0.704	0.758	0.731	0.66	0.49	0.782	0.741	0.768	0.751	0.539	0.565	0.622	0.513
NCI-H2342	0.974	0.887	0.875	0.906	1.01					0.554	0.522	0.503	0.67	0.566	0.3	0.345	0.338	0.289
ChaGo-K-1	0.971	0.826	0.82	0.947	0.882					0.549	0.426	0.458	0.529	0.48	0.641	0.602	0.56	0.535
NCI-H1650	1.13	1.16	1.11	1.37	1.19					0.39	0.427	0.379	0.436	0.445	0.306	0.293	0.305	0.216
NCI-H1623	0.971	0.818	0.879	0.757	0.834					0.44	0.508	0.584	0.544	0.545	0.451	0.553	0.507	0.575
A549	1.11	0.853	0.972	1.01	0.98	0.813	0.896	0.957	0.804	0.209	0.116	0.161	0.119	0.143				
NCI-H522										0.727	0.661	0.594	0.716	0.728	0.83	0.749	0.944	0.739
NCI-H1703	0.388	0.405	0.332	0.289	0.395	0.367	0.361	0.304	0.147									
NCI-H1299	1.15	1.08	1.13	1.12	1.13	1.06	0.979	1.07	0.997									
